Measurements as given in PubChem BioAssay (NCI).
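Where inhibition never reached the appropriate level, the endpoint shown equals the highest concentration tested. Otherwise, values were interpolated linearly from a five-concentration, 48-hour dose response in 96-well plates. The concentration for full growth arrest is given as TGI.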

These compounds were tested on DMS 273 small cell lung (assay: NCI-60 cell line screen, 48 h).

First: COC(=O)C1=C(C(=O)OC)C2(C)OC1C(=O)C21CC1 (configuration not stated)
Second: CC(=O)COC(=O)CC(C)=O
The TGI of the first is lower: 40.2 µM for the first, over 100 µM for the second.

Going from `c1ccc(CNc2ccc3[nH]c4cnccc4c3c2)cc1` to `OC1CC1Sc1ccccc1` (configuration not stated), the TGI rises from 37.4 µM to over 100 µM.

For `CCOC(=O)C(C(C)=O)C1CC=CC1` (configuration not stated), the TGI was over 100 µM.

These compounds were tested on SF-295 CNS (assay: NCI-60 cell line screen, 48 h).

`COC(=O)C1=C(C(=O)OC)C2(C)OC1C(=O)C21CC1` (configuration not stated) and `CC(=O)COC(=O)CC(C)=O` cannot be ordered by TGI: over 100 µM for the first, over 100 µM for the second.

Compared with `c1ccc(CNc2ccc3[nH]c4cnccc4c3c2)cc1`, `OC1CC1Sc1ccccc1` (configuration not stated) is 2.1-fold higher in TGI: 32.6 µM for the first, 69.4 µM for the second.

`CCOC(=O)C(C(C)=O)C1CC=CC1` (configuration not stated) gave a TGI of over 100 µM.

The compounds below were run on CCRF-CEM leukemia (assay: NCI-60 cell line screen, 48 h).

Compared with `COC(=O)C1=C(C(=O)OC)C2(C)OC1C(=O)C21CC1` (configuration not stated), `CC(=O)COC(=O)CC(C)=O` is higher in TGI: 39.6 µM for the first, over 100 µM for the second.

First: c1ccc(CNc2ccc3[nH]c4cnccc4c3c2)cc1
Second: OC1CC1Sc1ccccc1 (configuration not stated)
The TGI of the first is lower: 42.5 µM for the first, over 100 µM for the second.

Work on `CCOC(=O)C(C(C)=O)C1CC=CC1` (configuration not stated) yielded a TGI of over 100 µM.

The compounds below were run on HL-60(TB) leukemia (assay: NCI-60 cell line screen, 48 h).

First: COC(=O)C1=C(C(=O)OC)C2(C)OC1C(=O)C21CC1 (configuration not stated)
Second: CC(=O)COC(=O)CC(C)=O
The TGI of the first is lower: 39.6 µM for the first, over 100 µM for the second.

`c1ccc(CNc2ccc3[nH]c4cnccc4c3c2)cc1` and `OC1CC1Sc1ccccc1` (configuration not stated) are within 1.5-fold of each other in TGI: 27.4 µM for the first, 39.6 µM for the second.

With `CCOC(=O)C(C(C)=O)C1CC=CC1` (configuration not stated) the TGI was over 100 µM.

The compounds below were run on IGROV1 ovarian (assay: NCI-60 cell line screen, 48 h).

First: COC(=O)C1=C(C(=O)OC)C2(C)OC1C(=O)C21CC1 (configuration not stated)
Second: CC(=O)COC(=O)CC(C)=O
The TGI of the first is lower: 57.7 µM for the first, over 100 µM for the second.

Compared with `c1ccc(CNc2ccc3[nH]c4cnccc4c3c2)cc1`, `OC1CC1Sc1ccccc1` (configuration not stated) is 1.7-fold higher in TGI: 34.4 µM for the first, 60.1 µM for the second.

Compound `CCOC(=O)C(C(C)=O)C1CC=CC1` (configuration not stated) has a TGI of over 100 µM.

Each compound was assayed on OVCAR-5 ovarian (assay: NCI-60 cell line screen, 48 h).

`COC(=O)C1=C(C(=O)OC)C2(C)OC1C(=O)C21CC1` (configuration not stated) and `CC(=O)COC(=O)CC(C)=O` cannot be ordered by TGI: over 100 µM for the first, over 100 µM for the second.

First: c1ccc(CNc2ccc3[nH]c4cnccc4c3c2)cc1
Second: OC1CC1Sc1ccccc1 (configuration not stated)
The TGI of the first is lower: 30.9 µM for the first, over 100 µM for the second.

For `CCOC(=O)C(C(C)=O)C1CC=CC1` (configuration not stated), the TGI was over 100 µM.

Each compound was assayed on HT29 colon (assay: NCI-60 cell line screen, 48 h).

First: COC(=O)C1=C(C(=O)OC)C2(C)OC1C(=O)C21CC1 (configuration not stated)
Second: CC(=O)COC(=O)CC(C)=O
The TGI of the first is lower: 37 µM for the first, over 100 µM for the second.

Compared with `c1ccc(CNc2ccc3[nH]c4cnccc4c3c2)cc1`, `OC1CC1Sc1ccccc1` (configuration not stated) is higher in TGI: 31.7 µM for the first, over 100 µM for the second.

In the case of `CCOC(=O)C(C(C)=O)C1CC=CC1` (configuration not stated), the TGI is reported as over 100 µM.

The compounds below were run on EKVX NSCLC (assay: NCI-60 cell line screen, 48 h).

`COC(=O)C1=C(C(=O)OC)C2(C)OC1C(=O)C21CC1` (configuration not stated) and `CC(=O)COC(=O)CC(C)=O` cannot be ordered by TGI: over 100 µM for the first, over 100 µM for the second.

Compared with `c1ccc(CNc2ccc3[nH]c4cnccc4c3c2)cc1`, `OC1CC1Sc1ccccc1` (configuration not stated) is higher in TGI: 43.4 µM for the first, over 100 µM for the second.

`CCOC(=O)C(C(C)=O)C1CC=CC1` (configuration not stated) showed a TGI of over 100 µM.

The compounds below were run on XF 498 CNS (assay: NCI-60 cell line screen, 48 h).

Going from `COC(=O)C1=C(C(=O)OC)C2(C)OC1C(=O)C21CC1` (configuration not stated) to `CC(=O)COC(=O)CC(C)=O`, the TGI rises from 26.5 µM to over 100 µM.

Compared with `c1ccc(CNc2ccc3[nH]c4cnccc4c3c2)cc1`, `OC1CC1Sc1ccccc1` (configuration not stated) is higher in TGI: 35.8 µM for the first, over 100 µM for the second.

`CCOC(=O)C(C(C)=O)C1CC=CC1` (configuration not stated) gave a TGI of over 100 µM.

What follows are compounds tested on OVCAR-4 ovarian (assay: NCI-60 cell line screen, 48 h).

Compared with `COC(=O)C1=C(C(=O)OC)C2(C)OC1C(=O)C21CC1` (configuration not stated), `CC(=O)COC(=O)CC(C)=O` is higher in TGI: 25.1 µM for the first, over 100 µM for the second.

Compared with `c1ccc(CNc2ccc3[nH]c4cnccc4c3c2)cc1`, `OC1CC1Sc1ccccc1` (configuration not stated) is higher in TGI: 29.1 µM for the first, over 100 µM for the second.

`CCOC(=O)C(C(C)=O)C1CC=CC1` (configuration not stated) showed a TGI of over 100 µM.

The compounds below were run on NCI-H226 lung (assay: NCI-60 cell line screen, 48 h).

`COC(=O)C1=C(C(=O)OC)C2(C)OC1C(=O)C21CC1` (configuration not stated) and `CC(=O)COC(=O)CC(C)=O` cannot be ordered by TGI: over 100 µM for the first, over 100 µM for the second.

First: c1ccc(CNc2ccc3[nH]c4cnccc4c3c2)cc1
Second: CCOC(=O)C(C(C)=O)C1CC=CC1 (configuration not stated)
The TGI of the first is lower: 38.4 µM for the first, over 100 µM for the second.

Each compound was assayed on SF-539 CNS (assay: NCI-60 cell line screen, 48 h).

Going from `COC(=O)C1=C(C(=O)OC)C2(C)OC1C(=O)C21CC1` (configuration not stated) to `CC(=O)COC(=O)CC(C)=O`, the TGI rises from 41.5 µM to over 100 µM.

`c1ccc(CNc2ccc3[nH]c4cnccc4c3c2)cc1` and `OC1CC1Sc1ccccc1` (configuration not stated) are within 1.5-fold of each other in TGI: 33.3 µM for the first, 46.4 µM for the second.

These compounds were tested on RXF-631 renal (assay: NCI-60 cell line screen, 48 h).

Compared with `COC(=O)C1=C(C(=O)OC)C2(C)OC1C(=O)C21CC1` (configuration not stated), `CC(=O)COC(=O)CC(C)=O` is higher in TGI: 36.1 µM for the first, over 100 µM for the second.

Compared with `c1ccc(CNc2ccc3[nH]c4cnccc4c3c2)cc1`, `OC1CC1Sc1ccccc1` (configuration not stated) is higher in TGI: 49.2 µM for the first, over 100 µM for the second.

In the case of `CCOC(=O)C(C(C)=O)C1CC=CC1` (configuration not stated), the TGI is reported as over 100 µM.

Each compound was assayed on SF-268 CNS (assay: NCI-60 cell line screen, 48 h).

`COC(=O)C1=C(C(=O)OC)C2(C)OC1C(=O)C21CC1` (configuration not stated) and `CC(=O)COC(=O)CC(C)=O` cannot be ordered by TGI: over 100 µM for the first, over 100 µM for the second.

Going from `c1ccc(CNc2ccc3[nH]c4cnccc4c3c2)cc1` to `OC1CC1Sc1ccccc1` (configuration not stated), the TGI rises from 35 µM to 78.1 µM (2.2-fold).
